The source made the active and inactive calls.
Experiments:
[1] = target: T1, Sentrin-specific protease 8 (Homo sapiens, UniProt Q96LD8); assay: inhibition of human SENP8 cleavage activity – biochemical, luminescence, SAR follow-up (AID 504501); type: functional
T1 sequence (Q96LD8 whole entry): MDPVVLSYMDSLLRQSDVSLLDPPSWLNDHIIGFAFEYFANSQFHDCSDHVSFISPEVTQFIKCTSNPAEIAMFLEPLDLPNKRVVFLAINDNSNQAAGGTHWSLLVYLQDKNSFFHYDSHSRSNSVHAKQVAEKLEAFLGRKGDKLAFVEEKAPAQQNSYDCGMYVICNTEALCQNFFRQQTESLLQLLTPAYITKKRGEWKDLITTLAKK

Caspase-3 [2] = target: T2, Caspase-3 (Homo sapiens, UniProt P42574); assay: inhibition of recombinant caspase-3 activity – biochemical, luminescence, set 2, selectivity assay for SENP protease inhibitor project, SAR follow-up (AID 588599); type: functional
T2 sequence (P42574 whole entry): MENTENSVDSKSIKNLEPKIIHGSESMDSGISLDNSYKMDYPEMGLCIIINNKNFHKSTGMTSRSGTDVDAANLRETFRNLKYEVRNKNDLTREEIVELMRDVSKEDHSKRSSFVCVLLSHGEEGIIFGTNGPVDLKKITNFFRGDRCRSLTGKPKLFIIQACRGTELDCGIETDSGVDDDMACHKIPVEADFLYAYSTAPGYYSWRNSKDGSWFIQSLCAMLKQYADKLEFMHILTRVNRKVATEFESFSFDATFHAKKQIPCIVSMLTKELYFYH

[3] = target: T1, Sentrin-specific protease 8; assay: inhibition of sentrin protease 8 – biochemical, luminescence, set 2, SAR follow-up (AID 588601); type: functional
Caspase-3 [4] = target: T2, Caspase-3; assay: SAR Analysis of small molecule inhibitors of Sentrin-specific proteases (SENPs) using a Caspase-3 Selectivity assay. [Related pubchem assays (depositor defined):AID2540, AID2599, AID434973, AID489001]; type: functional
[5] = target: T3, Sentrin-specific protease 7 (Homo sapiens, UniProt Q9BQF6); assay: inhibition of human SENP7 cleavage activity – biochemical, luminescence, set 2, SAR follow-up (AID 588600); type: functional
T3 sequence (Q9BQF6 whole entry): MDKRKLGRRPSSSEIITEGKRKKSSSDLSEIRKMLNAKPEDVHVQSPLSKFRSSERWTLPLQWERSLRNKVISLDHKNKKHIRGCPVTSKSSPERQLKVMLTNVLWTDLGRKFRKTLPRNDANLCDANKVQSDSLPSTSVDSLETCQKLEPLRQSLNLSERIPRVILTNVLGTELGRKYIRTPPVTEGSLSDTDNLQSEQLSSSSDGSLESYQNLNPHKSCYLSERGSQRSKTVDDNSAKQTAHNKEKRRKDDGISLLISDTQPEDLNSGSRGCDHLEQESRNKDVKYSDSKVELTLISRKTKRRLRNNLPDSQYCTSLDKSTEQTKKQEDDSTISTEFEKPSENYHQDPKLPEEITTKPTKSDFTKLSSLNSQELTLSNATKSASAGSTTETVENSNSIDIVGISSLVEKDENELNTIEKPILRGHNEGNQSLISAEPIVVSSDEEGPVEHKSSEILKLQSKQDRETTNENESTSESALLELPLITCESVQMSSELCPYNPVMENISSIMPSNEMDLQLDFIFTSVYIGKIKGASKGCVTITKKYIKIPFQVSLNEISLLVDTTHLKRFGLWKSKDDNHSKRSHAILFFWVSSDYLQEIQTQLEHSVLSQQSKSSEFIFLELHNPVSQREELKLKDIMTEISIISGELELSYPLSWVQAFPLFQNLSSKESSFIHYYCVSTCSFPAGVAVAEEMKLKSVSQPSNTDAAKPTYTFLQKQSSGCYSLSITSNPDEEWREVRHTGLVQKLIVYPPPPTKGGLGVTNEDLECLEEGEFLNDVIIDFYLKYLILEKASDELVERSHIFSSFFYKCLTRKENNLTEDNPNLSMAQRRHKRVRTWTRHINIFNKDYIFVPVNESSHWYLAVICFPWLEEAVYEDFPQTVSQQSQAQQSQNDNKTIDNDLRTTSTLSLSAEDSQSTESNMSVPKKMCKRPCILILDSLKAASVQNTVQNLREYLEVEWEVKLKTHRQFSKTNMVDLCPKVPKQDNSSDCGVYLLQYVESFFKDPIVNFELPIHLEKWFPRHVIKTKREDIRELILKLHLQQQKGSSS

[6] = target: T4, Sentrin-specific protease 6 (Homo sapiens, UniProt Q9GZR1); assay: SAR Analysis of small molecule inhibitors of Sentrin-specific protease 6 (SENP6) using a Luminescent assay. [Related pubchem assays (depositor defined):AID2582, AID2599]; type: functional
T4 sequence (Q9GZR1 whole entry): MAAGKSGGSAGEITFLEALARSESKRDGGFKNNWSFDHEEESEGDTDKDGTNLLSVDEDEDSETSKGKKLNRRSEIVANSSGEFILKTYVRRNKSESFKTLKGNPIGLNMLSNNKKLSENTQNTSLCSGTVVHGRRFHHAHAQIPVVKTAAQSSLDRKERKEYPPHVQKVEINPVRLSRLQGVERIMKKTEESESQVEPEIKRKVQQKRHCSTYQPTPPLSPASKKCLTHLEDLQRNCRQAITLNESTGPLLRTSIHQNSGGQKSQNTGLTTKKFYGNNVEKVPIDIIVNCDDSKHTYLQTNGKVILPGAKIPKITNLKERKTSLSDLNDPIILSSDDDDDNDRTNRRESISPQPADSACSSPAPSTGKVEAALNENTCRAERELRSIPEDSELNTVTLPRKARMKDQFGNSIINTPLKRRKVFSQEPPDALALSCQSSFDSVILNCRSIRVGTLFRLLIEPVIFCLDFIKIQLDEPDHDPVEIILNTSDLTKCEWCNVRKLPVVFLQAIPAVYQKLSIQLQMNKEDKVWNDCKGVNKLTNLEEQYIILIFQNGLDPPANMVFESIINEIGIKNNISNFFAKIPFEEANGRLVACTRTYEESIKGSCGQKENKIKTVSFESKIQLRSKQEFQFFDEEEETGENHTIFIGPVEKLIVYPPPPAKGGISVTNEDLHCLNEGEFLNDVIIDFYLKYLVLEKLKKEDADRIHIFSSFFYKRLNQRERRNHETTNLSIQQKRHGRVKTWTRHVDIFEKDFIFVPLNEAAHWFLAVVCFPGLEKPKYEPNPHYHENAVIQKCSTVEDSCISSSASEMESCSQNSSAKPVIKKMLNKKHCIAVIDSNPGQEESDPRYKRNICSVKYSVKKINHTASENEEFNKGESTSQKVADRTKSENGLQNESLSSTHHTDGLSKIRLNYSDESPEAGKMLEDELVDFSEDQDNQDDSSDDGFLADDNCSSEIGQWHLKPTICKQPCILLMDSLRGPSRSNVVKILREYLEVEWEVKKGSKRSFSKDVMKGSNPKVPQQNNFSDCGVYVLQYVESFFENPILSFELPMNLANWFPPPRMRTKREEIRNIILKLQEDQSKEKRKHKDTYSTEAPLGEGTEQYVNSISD

[7] = target: T4, Sentrin-specific protease 6; assay: inhibition of human SENP6 catalytic domain – biochemical, luminescence, set 2, SAR follow-up (AID 588598); type: functional
[8] = target: T3, Sentrin-specific protease 7; assay: inhibition of human SENP7 cleavage activity – biochemical, luminescence, SAR follow-up (AID 504497); type: functional
BJ [9] = assay: BJ-TERT fibroblast viability loss – cell-based, RAS-independent, luminescence, dose response (AID 1933); type: functional; conditions: Homo sapiens
BJ [10] = assay: cells; type: functional, cell-based; conditions: Homo sapiens
BJ [11] = assay: BJ-TERT-LT-ST fibroblast viability loss – cell-based, RAS-independent, luminescence, dose response (AID 1935); type: functional; conditions: Homo sapiens;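 also: BJ fibroblasts immortalized with TERT plus LT and ST oncogenes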
[12] = DRD fibroblast viability loss – cell-based, non-viral oncogenic, luminescence, dose response (AID 1934); type: functional; conditions: Homo sapiens
Insulin-degrading enzyme [13] = target: T5, Insulin-degrading enzyme (Homo sapiens, UniProt P14735); assay: recombinant IDE activation, cell-free – biochemical, fluorescence polarization, counter-screen for IDE activator project, dose response (AID 588681)
T5 sequence (P14735 whole entry): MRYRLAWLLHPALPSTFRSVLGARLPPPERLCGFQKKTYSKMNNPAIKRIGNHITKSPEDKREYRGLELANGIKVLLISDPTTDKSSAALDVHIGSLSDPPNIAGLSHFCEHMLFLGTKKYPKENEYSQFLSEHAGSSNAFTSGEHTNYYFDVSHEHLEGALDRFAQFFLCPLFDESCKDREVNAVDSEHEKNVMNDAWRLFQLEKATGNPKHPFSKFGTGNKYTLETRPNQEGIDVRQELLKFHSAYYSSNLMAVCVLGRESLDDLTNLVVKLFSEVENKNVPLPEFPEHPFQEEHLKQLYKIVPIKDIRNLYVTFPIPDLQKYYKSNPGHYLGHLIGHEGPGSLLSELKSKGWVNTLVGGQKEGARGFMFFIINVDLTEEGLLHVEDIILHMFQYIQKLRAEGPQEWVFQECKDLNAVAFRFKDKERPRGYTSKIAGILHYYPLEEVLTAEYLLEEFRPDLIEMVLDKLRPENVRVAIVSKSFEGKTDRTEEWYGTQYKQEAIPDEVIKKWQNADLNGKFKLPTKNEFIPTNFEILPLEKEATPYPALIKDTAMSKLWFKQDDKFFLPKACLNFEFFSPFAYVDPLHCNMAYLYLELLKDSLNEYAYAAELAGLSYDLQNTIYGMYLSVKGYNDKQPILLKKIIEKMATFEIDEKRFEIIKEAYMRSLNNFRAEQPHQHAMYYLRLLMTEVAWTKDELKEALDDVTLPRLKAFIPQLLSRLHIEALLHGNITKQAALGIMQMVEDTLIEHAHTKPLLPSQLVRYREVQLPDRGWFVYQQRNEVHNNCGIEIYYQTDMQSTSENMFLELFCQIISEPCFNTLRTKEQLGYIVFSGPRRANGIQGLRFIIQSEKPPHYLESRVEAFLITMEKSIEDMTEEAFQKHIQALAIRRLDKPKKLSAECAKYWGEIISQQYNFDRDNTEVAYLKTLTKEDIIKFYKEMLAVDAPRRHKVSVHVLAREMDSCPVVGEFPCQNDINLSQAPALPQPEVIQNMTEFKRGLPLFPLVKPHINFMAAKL

Insulin-degrading enzyme [14] = target: T5, Insulin-degrading enzyme; assay: cellular IDE activation of Abeta substrate cleavage – fluorescence polarization, HEK cells, dose response (AID 588439); type: functional, cell-based
HEK293 [15] = assay: membrane integrity loss in HEK cells – cell-based, fluorescence, cytotoxicity control for IDE activator project, dose response (AID 588440); type: functional; conditions: Homo sapiens;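 also: cytotoxicity by LDH release measuring loss of membrane integrity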
HEK293 [16] = assay: optical interference in Abeta FP readout, dose response, artefact control for IDE activator project, biochemical, fluorescence polarization (AID 588442); type: functional, cell-based; conditions: Homo sapiens
[17] = bead-based luminescence quenchers, dual-tagged ARNT – biochemical, AlphaScreen, cherry-pick, artefact control for ARNT-TACC3 interaction inhibitor project, dose response (AID 651705); type: functional;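 also: AlphaScreen bead proximity signal that flags compounds interfering with the detection technology; potency reflects signal decrease which marks the compound as an assay artifact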
[18] = target: DNA dC->dU-editing enzyme APOBEC-3G (Homo sapiens, UniProt Q9HC16); assay: inhibition of APOBEC3G ssDNA deamination – biochemical, fluorescence, single-stranded DNA substrate, SAR follow-up (AID 602136); type: functional; conditions: read-out: IC50_Mean
Sequence of DNA dC->dU-editing enzyme APOBEC-3G (Q9HC16 whole entry): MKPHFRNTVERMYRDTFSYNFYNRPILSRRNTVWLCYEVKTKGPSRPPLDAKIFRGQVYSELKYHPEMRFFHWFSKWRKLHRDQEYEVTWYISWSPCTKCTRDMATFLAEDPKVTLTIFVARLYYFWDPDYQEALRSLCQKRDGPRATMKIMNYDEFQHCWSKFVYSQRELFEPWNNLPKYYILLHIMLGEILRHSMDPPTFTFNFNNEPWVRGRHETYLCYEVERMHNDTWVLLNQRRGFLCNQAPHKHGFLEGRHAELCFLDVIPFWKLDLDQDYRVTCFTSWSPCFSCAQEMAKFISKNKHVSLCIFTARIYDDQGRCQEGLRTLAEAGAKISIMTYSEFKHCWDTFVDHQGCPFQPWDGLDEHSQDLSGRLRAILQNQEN

[19] = target: DNA dC->dU-editing enzyme APOBEC-3A (Homo sapiens, UniProt P31941); assay: SAR analysis of small molecule inhibitors of APOBEC3A DNA Deaminase via a fluorescence-based single-stranded DNA deaminase assay.; type: functional; conditions: read-out: IC50_Mean
Sequence of DNA dC->dU-editing enzyme APOBEC-3A (P31941 whole entry): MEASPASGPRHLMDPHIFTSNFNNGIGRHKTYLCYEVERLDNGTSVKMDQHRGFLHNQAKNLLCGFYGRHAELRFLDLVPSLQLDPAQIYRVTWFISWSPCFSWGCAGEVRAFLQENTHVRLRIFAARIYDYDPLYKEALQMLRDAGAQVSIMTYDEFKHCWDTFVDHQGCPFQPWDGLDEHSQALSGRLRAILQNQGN

## CCCCc1ccc2nc(NC(=O)c3cc(C)cs3)sc2c1
[1]
  IC50: > 99 µM (inactive)
Caspase-3 [2]
  IC50: 68.4 µM (active)
[3]
  IC50: 8.25 µM (active)
Caspase-3 [4]
  IC50: 51 µM (active)
[5]
  IC50: 29.4 µM (active)
[6]
  IC50: > 99 µM (inactive)
[7]
  IC50: 8.58 µM (active)
[8]
  IC50: 6.4 µM (active)

## CCN(CC)c1ccc(/C=N/N=C(N)N)c(O)c1
BJ [9]
  EC50: 1.47 µM (active)
BJ [10]
  EC50: 2.16 µM (active)
BJ [11]
  EC50: 1.51 µM (inconclusive)
[12]
  EC50: 1.19 µM (active)
Insulin-degrading enzyme [13]
  EC50: > 54.7 µM (inactive)
Insulin-degrading enzyme [14]
  EC50: > 54.7 µM (inactive)
HEK293 [15]
  IC50: > 89.2 µM (inactive)
HEK293 [16]
  EC50: > 54.7 µM (inactive)
[17]
  AC50: 115 µM (active)

## Fc1ccc(Nc2nc(Nc3ccc(Cl)c(Cl)c3)nc(N3CCOCC3)n2)cc1
[18]
  IC50: > 99 µM (inactive)
[19]
  IC50: > 99 µM (inactive)

Reference: ChEMBL document CHEMBL1201862, “PubChem BioAssay data set” (2004)
